For orientation: Ki means the dissociation constant of the complex between target and ligand, obtained from inhibition or displacement. Broadly, the pKi is the Ki on a negative log10 scale, so that one unit is a factor of ten. By pIC50 is commonly meant −log10 of the IC50, conventionally taken in molar units.

Data on seven compounds can be found in patent US4530790A, “Cholecystokinin antagonists” (Merck & Co., Inc., priority 1983, dated 1985).

The test system of one data set is CCK. Put plainly: Capacity to antagonize CCK, relative to the compound of Formula I. Conditions: based on the activity of the compound of Formula I (1 x). From the text: The minor components A-D have also been tested for their capacity to antagonize CCK. Based on the activity of the compound of Formula I, the minor components relative activities are: […]
Data set [1] in a line: Solubility characteristics. Format: physicochemical.
The target in data set [2] is T1, isolated guinea pig gall bladder (CCK-8) (Cavia porcellus, UniProt Q63931).
T1 construct: The whole gall bladder was dissected free from adjacent tissues; from tissue; host or cells: guinea pig gall bladder
T1 sequence (Q63931 1-430): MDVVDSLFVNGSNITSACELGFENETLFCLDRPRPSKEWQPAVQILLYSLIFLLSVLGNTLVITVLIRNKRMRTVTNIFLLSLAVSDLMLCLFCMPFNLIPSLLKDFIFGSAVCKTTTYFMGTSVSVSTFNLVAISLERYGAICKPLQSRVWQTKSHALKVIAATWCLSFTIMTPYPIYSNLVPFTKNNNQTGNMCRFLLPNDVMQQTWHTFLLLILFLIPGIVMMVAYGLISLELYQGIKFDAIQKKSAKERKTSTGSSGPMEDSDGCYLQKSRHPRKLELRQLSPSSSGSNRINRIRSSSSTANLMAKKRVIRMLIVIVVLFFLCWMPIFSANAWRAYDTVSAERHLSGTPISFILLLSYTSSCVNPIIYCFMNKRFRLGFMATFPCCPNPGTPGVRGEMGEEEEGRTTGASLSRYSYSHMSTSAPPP
Put plainly: Isolated guinea pig gall bladder, antagonism of CCK-8 induced contraction. Also noted: species or system Male Hartley guinea pigs. On the procedure:
Male Hartley guinea pigs (400-600 g) were sacrificed by decapitation. The whole gall bladder was dissected free from adjacent tissues and its content gently squeezed out. The whole bladder was suspended in 5 ml organ bath under 1 g tension. The organ bath contained a Kreb's bicarbonate solution (NaCl 118 mM, KCl 4.75 mM, CaCl 2.54 mM, KH2 PO4 1.19 mM, Mg SO4 1.2 mM, NaHCO3 25 mM and dextrose 11 mM) maintained at 32° C. and bubbled with 95% O2 and 5% CO2. Isometric contractions were recorded using Statham (60 g; 0.12 mm) strain gauges and a Hewlett-Packard (77588) recorder. The tissues were washed every 10 minutes for 1 hr to obtain equilibrium prior to the beginning of the study. CCK-8 was added cumulatively to the baths and EC50 's determined using regression analysis. After washout (every 10 minutes for 1 hr), the compound of Formula I was added at least 5 minutes before the addition of CCK-8 and the EC50 of CCK-8 in the presence of the compound of Formula I similarly determined. The PA2 values and slope were obtained from regression analysis of a Schild plot (Brit. J. Pharmacol. 14: 48-58, 1959) using three concentrations of the compound of Formula I and 3-4 tissues at each concentration.

Data set [3] deals with T2, isolated longitudinal muscle of guinea pig ileum (CCK-8) (Cavia porcellus, UniProt Q63931).
T2 construct: Longitudinal muscle strips with attached nerve plexus were prepared; from tissue; host or cells: guinea pig ileum longitudinal muscle with attached nerve plexus
T2 sequence (Q63931 1-430): T1 sequence (Q63931 1-430)
Put plainly: Isolated longitudinal muscle of guinea pig ileum, antagonism of CCK-8 induced contraction. Also noted: species or system Male Hartley guinea pigs. The protocol:
Longitudinal muscle strips with attached nerve plexus were prepared as described previously (Brit J. Pharmac. 23:; 356-363, 1964; J. Physiol. 194: 13-33, 1969). Male Hartley guinea pigs were decapitated and the ileum was removed (10 cm of the terminal ileum was discarded and the adjacent 20 cm piece was used). A piece (10 cm) of the ileum was stretched on a glass pipette. Using a cotton applicator to stroke tangently away from the mesentery attachment at one end, the longitudinal muscle was separated from the underlying circular muscle. The longitudinal muscle was then tied to a thread and by gently pulling, stripped away from the entire muscle. A piece of approximately 2 cm was suspended in 5 ml organ bath containing Krebs solution and bubbled with 95% O2 and 5% CO2 at 37° C. under 0.5 g tension. CCK-8 was added cumulatively to the baths and EC50 and pA2 values determined as described in the gall bladder preparation (above).

The next data set concerns the target T3, CCK receptor (Rattus norvegicus, UniProt P30551).
T3 construct: The whole pancreas was dissected free of fat tissue and was homogenized; from tissue; host or cells: rat whole pancreas membranes
T3 sequence (P30551 1-444): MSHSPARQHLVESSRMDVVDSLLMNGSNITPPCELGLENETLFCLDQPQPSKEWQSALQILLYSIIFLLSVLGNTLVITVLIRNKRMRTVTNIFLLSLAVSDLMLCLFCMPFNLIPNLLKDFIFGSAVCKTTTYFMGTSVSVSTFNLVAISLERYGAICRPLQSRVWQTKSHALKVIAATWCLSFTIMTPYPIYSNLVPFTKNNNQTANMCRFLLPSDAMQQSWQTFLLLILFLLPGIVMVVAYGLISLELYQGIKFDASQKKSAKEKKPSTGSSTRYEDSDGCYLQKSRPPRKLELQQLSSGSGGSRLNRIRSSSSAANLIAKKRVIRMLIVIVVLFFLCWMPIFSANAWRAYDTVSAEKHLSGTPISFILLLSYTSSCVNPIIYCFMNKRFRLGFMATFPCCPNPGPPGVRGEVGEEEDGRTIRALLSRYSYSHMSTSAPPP
Put plainly: CCK receptor binding (inhibition of specific 125I-CCK-33 binding to whole pancreas membranes). Also noted: species or system Male Sprague-Dawley rats. Conditions: for pIC50: rat pancreas, pH 7.7, 37° C., 30 minutes; for effect on the 125I-CCK receptor binding assay: added protease inhibitors, 1.2 mM phenylmethane sulfonyl fluoride, 0.5 mM o-phenanthroline in assay buffer. The protocol:
CCK-33 was radiolabeled with ^125 I-Bolton Hunter reagent (2000 Ci/mmole) as described by Sankara et al. (J. Biol. Chem. 254: 9349-9351, 1979). Receptor binding was performed according to Innis and Snyder (Proc. Natl. Acad. Sci. 77: 6917-6921, 1980) with the minor modification of adding the additional protease inhibitors, phenylmethane sulfonyl fluoride and o-phenanthroline. The latter two compounds have no effect of the ^125 I-CCK receptor binding assay.
Male Sprague-Dawley rats (200-350 g) were sacrificed by decapitation. The whole pancreas was dissected free of fat tissue and was homogenized in 20 volumes of ice-cold 50 mM, Tris HCl (pH 7.7 at 25° C.) with a Brinkmann Polytron PT 10. The homogenates were centrifuged at 48,000 g for 10 min. Pellets were resuspended in Tris Buffer, centrifuged as above and resuspended in 200 volumes of binding assay buffer (50 mM Tris HCl, pH 7.7 at 25° C., 5 mM dithiothreitol, 0.1 mM bacitracin, 1.2 mM phenylmethane sulfonyl fluoride and 0.5 mM o-phenanthroline). For the binding assay, 25 μl of buffer (for total binding) or unlabeled CCK-8 sulfate to give a final concentration of 1 μM (for nonspecific binding) or the compound of Formula I (for determination inhibition of ^125 I-CCK binding) and 25 μl of ^125 I-CCK-33 (30,000-40,000 cpm) were added to 450 μl of the membrane suspensions in microfuge tubes. All assays were run in duplicate or triplicate. The reaction mixtures were incubated at 37° C. for 30 minutes and centrifuged in a Beckman Microfuge (4 minutes) immediately after adding 1 ml of ice-cold incubation buffer. The supernatant was aspirated and discarded, pellets were counted with a Beckman gamma 5000. For Scatchard analysis (Ann. N.Y. Acad. Sci. 51: 660, 1949), ^125 I-CCK-33 was progressively diluted with increasing concentrations of CCK-33.

Structures are written as SMILES. pIC50, pKi: −log10 of the molar value.

Regarding `O=C1c2ccccc2-n2c(nc3ccccc3c2=O)[C@@H]2C[C@]3(O)c4ccccc4N[C@@H]3N12` [Component A], the “relative activity to antagonize CCK” value in the data set with CCK is recorded as 1/70.

In the case of `O=C1NC(Cc2c[nH]c3ccccc23)c2nc3ccccc3c(=O)n2-c2ccccc21` (stereo not drawn) [Component B], the “relative activity to antagonize CCK” value in the data set on CCK is recorded as 1/7.

In the case of `O=C1Nc2ccccc2-c2nc3ccccc3c(=O)n2C1Cc1c[nH]c2ccccc12` (stereo not drawn) [Component C], the “relative activity to antagonize CCK” value in the data set on CCK is 1/30.

In the case of `CC(C)C[C@H]1C(=O)N2c3ccccc3[C@@](O)(C[C@@H]3NC(=O)c4ccccc4-n4c3nc3ccccc3c4=O)[C@H]2N1O` [Component D], in the data set on CCK, the “relative activity to antagonize CCK” value amounted to 5 x.

Regarding `CC(C)C[C@@H]1N[C@H]2N(C1=O)c1ccccc1[C@@]2(O)C[C@@H]1NC(=O)c2ccccc2-n2c1nc1ccccc1c2=O` [Formula I], the “relative activity to antagonize CCK” value in the data set with CCK was 1 x. For the same compound, in data set [1] (CHCl3, MeOH, EtOH, acetone, DMSO), the “solubility: soluble in” value is given as “soluble in: CHCl3, MeOH, EtOH, acetone, DMSO”. For the same compound, the “solubility: insoluble in” value in data set [1] (H2O, hexane, pet. ether) was “insoluble in: H2 O, hexane, pet. ether”. Besides, the “effect on CCK-8 dose-response” value in data set [2] (1.3-13 μM) and in data set [3] (1.3-13 μM) was “concentration dependent parallel shift to the right of the CCK-8 dose-response without change in the maximal contractile response” throughout. Moreover, the mode of antagonism entry is recorded as “competitive antagonist of CCK-8” in data set [2] (CCK-8) and “competitive antagonism of CCK” in data set [3]. In addition, the results for the “slope of the Schild plot” value in data set [2] (CCK-8) and in data set [3] (CCK-8) were 0.95±0.19 and 0.89±0.20, respectively. Besides, the Kb in data set [2] (CCK-8, three concentrations, 3-4 tissues each, read-out: pA2 value (Schild plot) (converted)) was 1 µM; in data set [3] (CCK-8, read-out: pA2 value (Schild plot) (converted)), 0.398 µM. Moreover, the Ki is 1 µM in data set [2] (from Schild plot pA2, read-out: Ki value corresponding to pA2 (converted)) and 0.4 µM in data set [3] (from Schild plot pA2, read-out: Ki corresponding to pA2 (converted)). In addition, the “effect on KD (dissociation constant) and Bmax (maximum receptor number) of 125I-CCK-33” value on CCK receptor (Scatchard analysis, 1.3 μM) is recorded as “increased the KD (dissociation constant) without affecting the Bmax (maximum receptor number)”. Further, on CCK receptor (Scatchard analysis, absence and presence of 1.3 μM), the “mode of inhibition of specific 125I-CCK-33 receptor binding” value is listed as “competitively inhibited specific ^125 I-CCK-33 receptor binding”. The pKi at CCK receptor (estimated, 125I-CCK-33 receptor binding, read-out: Ki value (dissociation constant of inhibitor)) is 6.05. The values for the pIC50 at CCK receptor and on CCK receptor (printed in parentheses) were 5.88 and 5.89, respectively.

For the compound `c1cnc2c(c1)ccc1cccnc12` [o-phenanthroline, reference compound], the “effect on the 125I-CCK receptor binding assay” value on CCK receptor is listed as “no effect”.

In the case of `O=S(=O)(F)Cc1ccccc1` [phenylmethane sulfonyl fluoride, reference compound], the “effect on the 125I-CCK receptor binding assay” value at CCK receptor was “no effect”.
